{"source": "patent US20250345392A1", "about": "“ANNEXIN A1 LIQUID PHARMACEUTICAL COMPOSITION” (ResoTher Pharma A/S, priority 2022, published 2025)", "assay": "14-day repeat IV dose toxicity study with toxicokinetic evaluation on Day 1 and 14 in dogs", "type": "in vivo, beagle dogs", "settings": "dog; for C0 / AUC(0-inf) / clearance / half-life / Vd: in vivo", "method": "Peptide 1 in blood samples collected from animals used in the studies (rat and dog) has been measured by an LC-MS/MS method. Analysis of samples collected in the pharmacokinetic study in rats was performed prior to validation of the method. Prior to analysis of samples from the GLP toxicology studies, the method was validated according to GLP to ensure that it is selective, accurate, reproducible, and able to produce reliable results. The method was validated over the range from 0.075 to 25 μg/mL Peptide 1.\nIn the 14-day intravenous toxicity study in beagle dogs (see study description below), samples were collected from 3 male and 3 female animals per group dosed at 0 (Control), 1, 3 or 10 mg/kg/day at 2, 5, 10, 20 and 40 minutes after dosing on Days 1 and 14. Samples were analysed for levels of Peptide 1.", "note": "Read-outs that look alike come from different tables or passages of the source. Ends that are not written are not given here."}
{"substance": "AMVSEFLKQAWFIENEEQEYVQTLKSSKGGPGSAVSPYPTFNPSSDV-NH2 [Peptide 1]", "values": [{"measurement": "exposure (C(0) and AUCinf) versus dose", "setting": "from 1 mg/kg to 10 mg/kg", "value": "increase proportional to dose level"}, {"measurement": "C0", "setting": "1 mg/kg, Group 2 (1 mg/kg), range over sexes and Days 1 and 14", "value": "4580 to 8580", "unit": "ng/mL"}, {"measurement": "AUC(0-inf)", "setting": "1 mg/kg, Group 2 (1 mg/kg), range over sexes and Days 1 and 14, read-out: AUCinf", "value": "450 to 620", "unit": "ng·h/mL"}, {"measurement": "C0", "setting": "3 mg/kg, Group 3 (3 mg/kg), range over sexes and Days 1 and 14", "value": "12500 to 20000", "unit": "ng/mL"}, {"measurement": "AUC(0-inf)", "setting": "3 mg/kg, Group 3 (3 mg/kg), range over sexes and Days 1 and 14, read-out: AUCinf", "value": "1420 to 1970", "unit": "ng·h/mL"}, {"measurement": "C0", "setting": "10 mg/kg, Group 4 (10 mg/kg), range over sexes and Days 1 and 14", "value": "26400 to 58300", "unit": "ng/mL"}, {"measurement": "AUC(0-inf)", "setting": "10 mg/kg, Group 4 (10 mg/kg), range over sexes and Days 1 and 14, read-out: AUCinf", "value": "3930 to 4680", "unit": "ng·h/mL"}, {"measurement": "clearance", "setting": "all groups, read-out: clearance", "value": "27.4 to 42.7", "unit": "mL/min/kg"}, {"measurement": "half-life", "setting": "all groups, read-out: elimination half-life", "value": "4.66 to 6.59", "unit": "min"}, {"measurement": "C0", "setting": "iv, 1 mg/kg/day, IV 1.0 mg/kg/day, female, Day 1", "value": 6990, "unit": "ng/mL"}, {"measurement": "AUC(0-inf)", "setting": "iv, 1 mg/kg/day, IV 1.0 mg/kg/day, female, Day 1, read-out: AUC0-∞ (converted)", "value": 537, "unit": "ng·h/mL"}, {"measurement": "clearance", "setting": "iv, 1 mg/kg/day, IV 1.0 mg/kg/day, female, Day 1, read-out: Cl", "value": 33.1, "unit": "mL/min/kg"}, {"measurement": "half-life", "setting": "iv, 1 mg/kg/day, IV 1.0 mg/kg/day, female, Day 1, read-out: T1/2", "value": 4.83, "unit": "min"}, {"measurement": "Vd", "setting": "iv, 1 mg/kg/day, IV 1.0 mg/kg/day, female, Day 1, read-out: Vz", "value": 0.232, "unit": "L/kg"}, {"measurement": "C0", "setting": "iv, 1 mg/kg/day, IV 1.0 mg/kg/day, female, Day 14", "value": 8580, "unit": "ng/mL"}, {"measurement": "AUC(0-inf)", "setting": "iv, 1 mg/kg/day, IV 1.0 mg/kg/day, female, Day 14, read-out: AUC0-∞ (converted)", "value": 620, "unit": "ng·h/mL"}, {"measurement": "clearance", "setting": "iv, 1 mg/kg/day, IV 1.0 mg/kg/day, female, Day 14, read-out: Cl", "value": 27.4, "unit": "mL/min/kg"}, {"measurement": "half-life", "setting": "iv, 1 mg/kg/day, IV 1.0 mg/kg/day, female, Day 14, read-out: T1/2", "value": 4.66, "unit": "min"}, {"measurement": "Vd", "setting": "iv, 1 mg/kg/day, IV 1.0 mg/kg/day, female, Day 14, read-out: Vz", "value": 0.183, "unit": "L/kg"}, {"measurement": "C0", "setting": "iv, 1 mg/kg/day, IV 1.0 mg/kg/day, male, Day 1", "value": 4580, "unit": "ng/mL"}, {"measurement": "AUC(0-inf)", "setting": "iv, 1 mg/kg/day, IV 1.0 mg/kg/day, male, Day 1, read-out: AUC0-∞ (converted)", "value": 450, "unit": "ng·h/mL"}, {"measurement": "clearance", "setting": "iv, 1 mg/kg/day, IV 1.0 mg/kg/day, male, Day 1, read-out: Cl", "value": 37.1, "unit": "mL/min/kg"}, {"measurement": "half-life", "setting": "iv, 1 mg/kg/day, IV 1.0 mg/kg/day, male, Day 1, read-out: T1/2", "value": 4.68, "unit": "min"}, {"measurement": "Vd", "setting": "iv, 1 mg/kg/day, IV 1.0 mg/kg/day, male, Day 1, read-out: Vz", "value": 0.251, "unit": "L/kg"}, {"measurement": "C0", "setting": "iv, 1 mg/kg/day, IV 1.0 mg/kg/day, male, Day 14", "value": 6590, "unit": "ng/mL"}, {"measurement": "AUC(0-inf)", "setting": "iv, 1 mg/kg/day, IV 1.0 mg/kg/day, male, Day 14, read-out: AUC0-∞ (converted)", "value": 550, "unit": "ng·h/mL"}, {"measurement": "clearance", "setting": "iv, 1 mg/kg/day, IV 1.0 mg/kg/day, male, Day 14, read-out: Cl", "value": 31, "unit": "mL/min/kg"}, {"measurement": "half-life", "setting": "iv, 1 mg/kg/day, IV 1.0 mg/kg/day, male, Day 14, read-out: T1/2", "value": 6.59, "unit": "min"}, {"measurement": "Vd", "setting": "iv, 1 mg/kg/day, IV 1.0 mg/kg/day, male, Day 14, read-out: Vz", "value": 0.297, "unit": "L/kg"}, {"measurement": "C0", "setting": "iv, 3 mg/kg/day, IV 3.0 mg/kg/day, female, Day 1", "value": 16100, "unit": "ng/mL"}, {"measurement": "AUC(0-inf)", "setting": "iv, 3 mg/kg/day, IV 3.0 mg/kg/day, female, Day 1, read-out: AUC0-∞ (converted)", "value": 1700, "unit": "ng·h/mL"}, {"measurement": "clearance", "setting": "iv, 3 mg/kg/day, IV 3.0 mg/kg/day, female, Day 1, read-out: Cl", "value": 30.1, "unit": "mL/min/kg"}, {"measurement": "half-life", "setting": "iv, 3 mg/kg/day, IV 3.0 mg/kg/day, female, Day 1, read-out: T1/2", "value": 5.7, "unit": "min"}, {"measurement": "Vd", "setting": "iv, 3 mg/kg/day, IV 3.0 mg/kg/day, female, Day 1, read-out: Vz", "value": 0.248, "unit": "L/kg"}, {"measurement": "C0", "setting": "iv, 3 mg/kg/day, IV 3.0 mg/kg/day, female, Day 14", "value": 20000, "unit": "ng/mL"}, {"measurement": "AUC(0-inf)", "setting": "iv, 3 mg/kg/day, IV 3.0 mg/kg/day, female, Day 14, read-out: AUC0-∞ (converted)", "value": 1970, "unit": "ng·h/mL"}, {"measurement": "clearance", "setting": "iv, 3 mg/kg/day, IV 3.0 mg/kg/day, female, Day 14, read-out: Cl", "value": 25.9, "unit": "mL/min/kg"}, {"measurement": "half-life", "setting": "iv, 3 mg/kg/day, IV 3.0 mg/kg/day, female, Day 14, read-out: T1/2", "value": 6.13, "unit": "min"}, {"measurement": "Vd", "setting": "iv, 3 mg/kg/day, IV 3.0 mg/kg/day, female, Day 14, read-out: Vz", "value": 0.232, "unit": "L/kg"}, {"measurement": "C0", "setting": "iv, 3 mg/kg/day, IV 3.0 mg/kg/day, male, Day 1", "value": 12500, "unit": "ng/mL"}, {"measurement": "AUC(0-inf)", "setting": "iv, 3 mg/kg/day, IV 3.0 mg/kg/day, male, Day 1, read-out: AUC0-∞ (converted)", "value": 1420, "unit": "ng·h/mL"}, {"measurement": "clearance", "setting": "iv, 3 mg/kg/day, IV 3.0 mg/kg/day, male, Day 1, read-out: Cl", "value": 35.9, "unit": "mL/min/kg"}, {"measurement": "half-life", "setting": "iv, 3 mg/kg/day, IV 3.0 mg/kg/day, male, Day 1, read-out: T1/2", "value": 6.01, "unit": "min"}, {"measurement": "Vd", "setting": "iv, 3 mg/kg/day, IV 3.0 mg/kg/day, male, Day 1, read-out: Vz", "value": 0.318, "unit": "L/kg"}, {"measurement": "C0", "setting": "iv, 3 mg/kg/day, IV 3.0 mg/kg/day, male, Day 14", "value": 19900, "unit": "ng/mL"}, {"measurement": "AUC(0-inf)", "setting": "iv, 3 mg/kg/day, IV 3.0 mg/kg/day, male, Day 14, read-out: AUC0-∞ (converted)", "value": 1850, "unit": "ng·h/mL"}, {"measurement": "clearance", "setting": "iv, 3 mg/kg/day, IV 3.0 mg/kg/day, male, Day 14, read-out: Cl", "value": 27.4, "unit": "mL/min/kg"}, {"measurement": "half-life", "setting": "iv, 3 mg/kg/day, IV 3.0 mg/kg/day, male, Day 14, read-out: T1/2", "value": 6.05, "unit": "min"}, {"measurement": "Vd", "setting": "iv, 3 mg/kg/day, IV 3.0 mg/kg/day, male, Day 14, read-out: Vz", "value": 0.238, "unit": "L/kg"}, {"measurement": "C0", "setting": "iv, 10 mg/kg/day, IV 10 mg/kg/day, female, Day 1", "value": 53400, "unit": "ng/mL"}, {"measurement": "AUC(0-inf)", "setting": "iv, 10 mg/kg/day, IV 10 mg/kg/day, female, Day 1, read-out: AUC0-∞ (converted)", "value": 4550, "unit": "ng·h/mL"}, {"measurement": "clearance", "setting": "iv, 10 mg/kg/day, IV 10 mg/kg/day, female, Day 1, read-out: Cl", "value": 37.1, "unit": "mL/min/kg"}, {"measurement": "half-life", "setting": "iv, 10 mg/kg/day, IV 10 mg/kg/day, female, Day 1, read-out: T1/2", "value": 5.41, "unit": "min"}, {"measurement": "Vd", "setting": "iv, 10 mg/kg/day, IV 10 mg/kg/day, female, Day 1, read-out: Vz", "value": 0.288, "unit": "L/kg"}, {"measurement": "C0", "setting": "iv, 10 mg/kg/day, IV 10 mg/kg/day, female, Day 14", "value": 58300, "unit": "ng/mL"}, {"measurement": "AUC(0-inf)", "setting": "iv, 10 mg/kg/day, IV 10 mg/kg/day, female, Day 14, read-out: AUC0-∞ (converted)", "value": 4570, "unit": "ng·h/mL"}, {"measurement": "clearance", "setting": "iv, 10 mg/kg/day, IV 10 mg/kg/day, female, Day 14, read-out: Cl", "value": 36.7, "unit": "mL/min/kg"}, {"measurement": "half-life", "setting": "iv, 10 mg/kg/day, IV 10 mg/kg/day, female, Day 14, read-out: T1/2", "value": 5.9, "unit": "min"}, {"measurement": "Vd", "setting": "iv, 10 mg/kg/day, IV 10 mg/kg/day, female, Day 14, read-out: Vz", "value": 0.312, "unit": "L/kg"}, {"measurement": "C0", "setting": "iv, 10 mg/kg/day, IV 10 mg/kg/day, male, Day 1", "value": 26400, "unit": "ng/mL"}, {"measurement": "AUC(0-inf)", "setting": "iv, 10 mg/kg/day, IV 10 mg/kg/day, male, Day 1, read-out: AUC0-∞ (converted)", "value": 3930, "unit": "ng·h/mL"}, {"measurement": "clearance", "setting": "iv, 10 mg/kg/day, IV 10 mg/kg/day, male, Day 1, read-out: Cl", "value": 42.7, "unit": "mL/min/kg"}, {"measurement": "half-life", "setting": "iv, 10 mg/kg/day, IV 10 mg/kg/day, male, Day 1, read-out: T1/2", "value": 5.09, "unit": "min"}, {"measurement": "Vd", "setting": "iv, 10 mg/kg/day, IV 10 mg/kg/day, male, Day 1, read-out: Vz", "value": 0.318, "unit": "L/kg"}, {"measurement": "C0", "setting": "iv, 10 mg/kg/day, IV 10 mg/kg/day, male, Day 14", "value": 51400, "unit": "ng/mL"}, {"measurement": "AUC(0-inf)", "setting": "iv, 10 mg/kg/day, IV 10 mg/kg/day, male, Day 14, read-out: AUC0-∞ (converted)", "value": 4680, "unit": "ng·h/mL"}, {"measurement": "clearance", "setting": "iv, 10 mg/kg/day, IV 10 mg/kg/day, male, Day 14, read-out: Cl", "value": 36.6, "unit": "mL/min/kg"}, {"measurement": "half-life", "setting": "iv, 10 mg/kg/day, IV 10 mg/kg/day, male, Day 14, read-out: T1/2", "value": 6, "unit": "min"}, {"measurement": "Vd", "setting": "iv, 10 mg/kg/day, IV 10 mg/kg/day, male, Day 14, read-out: Vz", "value": 0.316, "unit": "L/kg"}]}
